Assay results: PMC12445744, “Molecular docking to homology models of human and Trypanosoma brucei ERK8 that identified ortholog-specific inhibitors” (PLOS Neglected Tropical Diseases, 2025)
Several values for one entry are separate records, joined by “and”; a condition that tells them apart may be missing. Equal entries are not always repeated.

Target: T1, HsERK8 (Homo sapiens, UniProt Q8TD08)
T1 construct: plasmid pGEX2T expressing the full-length hERK8 coding region; made in house; host or cells: Escherichia coli Rosetta 2 (DE3)
T1 sequence (Q8TD08 1-544): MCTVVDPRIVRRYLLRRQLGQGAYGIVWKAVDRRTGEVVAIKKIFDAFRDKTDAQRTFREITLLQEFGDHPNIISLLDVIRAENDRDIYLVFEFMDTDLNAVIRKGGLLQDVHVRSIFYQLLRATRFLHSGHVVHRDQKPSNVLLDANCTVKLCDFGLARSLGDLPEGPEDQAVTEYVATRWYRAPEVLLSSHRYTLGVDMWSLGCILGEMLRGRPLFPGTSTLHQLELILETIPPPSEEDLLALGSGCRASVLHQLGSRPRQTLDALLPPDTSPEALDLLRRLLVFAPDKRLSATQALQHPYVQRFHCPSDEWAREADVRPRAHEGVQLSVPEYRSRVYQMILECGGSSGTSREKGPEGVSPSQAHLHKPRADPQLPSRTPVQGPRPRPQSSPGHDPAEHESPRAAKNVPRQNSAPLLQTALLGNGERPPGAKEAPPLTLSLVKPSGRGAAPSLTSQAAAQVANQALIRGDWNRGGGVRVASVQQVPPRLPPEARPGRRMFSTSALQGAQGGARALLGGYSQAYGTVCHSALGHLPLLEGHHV
Experiment: Luciferase-based kinase inhibition assay (ATP luminescence), GST-tagged HsERK8 with MBP substrate
Format: biochemical
Conditions: for raw luminescence, HsERK8: replicate wells; for Luminescence Raw (Kinase-Glo): HsERK8
Protocol: Escherichia coli strain Rosetta 2 (DE3) (Cat# 71397, MilliporeSigma, Burlington, MA) was transformed with the plasmid pGEX2T expressing the full-length hERK8 coding region or pGSTAg expressing the full-length TbERK8 coding region. One liter of Terrific Broth media containing 100 μg/ml Ampicillin and 30 μg/ml chloramphenicol in 2 L baffled flasks was inoculated with 25 mL from an overnight culture of Rosetta 2 strains harboring either the pGEX2T-hERK8 or pGSTAg-TbERK8 plasmid. Two baffled flasks were inoculated with each overnight strain and incubated and shaken at 175 RPM in a New Brunswick Innova 44R Incubator Shaker (Fischer Scientific, Pittsburgh, PA) at 37 °C until the cultures reached an O.D.600 of 0.94. Once the cultures in the flask reached the target O.D.600, the flasks were cooled to 4 °C in an ice water bath. The cooled cultures were induced by adding isopropyl β-D-1-thiogalactopyranoside (IPTG) to a final concentration of 0.1 mM and shaken at 16 °C for 16 hours at 175 RPM in a New Brunswick Innova 44R Incubator Shaker (Fischer Scientific, Pittsburgh, PA). On the next day, the cultures were pelleted by centrifugation at 9000 xg in a JLA 10.500 rotor (Beckman Coulter; Brea, CA), and the media was decanted. The pellet was flash-frozen in liquid nitrogen and then thawed on ice. The thawed pellet was resuspended in lysis buffer (25 mM Tris, 75 mM NaCl, 0.5% TritonX-100 and 0.5% Nonidet P-40, 1 mM phenylmethanesulfonyl fluoride, 1 mM benzamidine⋅HCl) and lysed using a microfluidizer M-110P from Microfluidics (Westwood, MA). The crude lysates were clarified by centrifugation at 140,000 xg in a 45Ti rotor (Beckman Coulter, Brea, CA) for 30 min at 4°C. The clarified lysate was loaded by gravity to a 3 mL glutathione agarose resin column (Cat# G-250–10, GOLDBIO, St. Louis, MO) formed in a 1.5 × 20 cm glass chromatography column (Cat# 7371522, Bio-Rad, Hercules, CA). The column was washed with 30 mL of PBS (pH 7.4) containing 1 mM DTT. Elution buffer (50 mM Tris buffer pH 8.0 containing 10 mM reduced glutathione and 1 mM DTT was added to the washed column), and 1 mL fractions were collected by gravity and examined by SDS-PAGE stained by Coomassie dye. Peak fractions pooled from the elution were dialyzed (4x 1:500 dilutions) in kinase buffer (30 mM Tris, pH 7.4, 10 mM MgCl2, 1 mM DTT, 5% glycerol).
We performed kinase assays in buffer K (30 mM Tris pH 7.4, 10 mM MgCl2, 1 mM DTT, 5% glycerol, 50 μM ATP, and 0.1 mg/mL BSA) at 30°C for 30 min in 30 μL reactions. GST-tagged HsERK8 and TbERK8 were tested using myelin basic protein (MBP) (Cat# 13–110, Millipore, Darmstadt, Germany) as the substrate at increasing concentrations to determine the optimal activity for the assay. ATP consumption was determined by adding equal volumes of the kinase assay reagent (Promega, Cat# V5601, Madison, WI) following the manufacturer’s protocol. Luminescence was measured using the microplate reader (SpectraMax L, Molecular Devices, Sunnyvale, CA).
These compounds were screened for kinase inhibition utilizing a luciferase-based assay. Briefly, the kinases were tested using MBP as the substrate at a 14-fold molar excess in 384-well flat-bottom white plates (BRANDTECH Scientific, Cat# 781681, Essex, CT). These compounds were tested at concentrations ranging from […] to 150 nM. The kinases plus MBP substrate reactions were incubated with each inhibitor for 30 minutes at 30°C. Equal volumes of kinase assay mix Promega (Cat# V5601, Madison, WI) were added to the kinase/inhibitor reaction after 30 minutes, following the manufacturer’s protocol. ATP luminescence was measured using a microplate reader (SpectraMax L, Molecular Devices, Sunnyvale, CA). IC50 values were calculated from assays done in triplicate by fitting the data using Prism 8.1.1 (GraphPad).

## C[C@]12C=CC(=O)C=C1CC[C@@H]1[C@@H]2[C@@H](O)C[C@@]2(C)[C@H]1CC[C@]2(O)C(=O)CO [Prednisolone]
  IC50: 300 µM
0.00015 mM compound, sheet ADP_ATP_glo081724 (3)
  raw luminescence, HsERK8: 2318.43 RLU and 2379.5 RLU and 1359.39 RLU
0.00015 mM compound, sheet Kinase_glo 08142024 (2)
  raw luminescence, HsERK8: 11527 RLU and 11136 RLU and 8980.24 RLU
0.00015 mM compound, sheet Kinase_glo_080924_IFPS (2)
  raw luminescence, HsERK8: 3541.75 RLU and 3582.18 RLU and 3076.85 RLU
0.00061 mM compound, sheet ADP_ATP_glo081724 (3)
  raw luminescence, HsERK8: 2825.09 RLU and 2949.5 RLU and 2422.48 RLU
0.00061 mM compound, sheet Kinase_glo 08142024 (2)
  raw luminescence, HsERK8: 11527 RLU and 11503.8 RLU and 9669.24 RLU
0.00061 mM compound, sheet Kinase_glo_080924_IFPS (2)
  raw luminescence, HsERK8: 3770.83 RLU and 3829.22 RLU and 3330.64 RLU
0.00244 mM compound, sheet ADP_ATP_glo081724 (3)
  raw luminescence, HsERK8: 3720.8 RLU and 3505.92 RLU and 3191.52 RLU
0.00244 mM compound, sheet Kinase_glo 08142024 (2)
  raw luminescence, HsERK8: 11998.3 RLU and 11782.7 RLU and 9967.25 RLU
0.00244 mM compound, sheet Kinase_glo_080924_IFPS (2)
  raw luminescence, HsERK8: 4143.65 RLU and 4112.2 RLU and 3658.53 RLU
0.00977 mM compound, sheet ADP_ATP_glo081724 (3)
  raw luminescence, HsERK8: 3641.63 RLU and 3797.7 RLU and 3386.04 RLU
0.00977 mM compound, sheet Kinase_glo 08142024 (2)
  raw luminescence, HsERK8: 11620 RLU and 11670.7 RLU and 9100.71 RLU
0.00977 mM compound, sheet Kinase_glo_080924_IFPS (2)
  raw luminescence, HsERK8: 4774.74 RLU and 5053.23 RLU and 4529.94 RLU
0.03906 mM compound, sheet ADP_ATP_glo081724 (3)
  raw luminescence, HsERK8: 4824.6 RLU and 4808.77 RLU and 4191.27 RLU
0.03906 mM compound, sheet Kinase_glo 08142024 (2)
  raw luminescence, HsERK8: 13839.2 RLU and 14168.9 RLU and 11317.8 RLU
0.03906 mM compound, sheet Kinase_glo_080924_IFPS (2)
  raw luminescence, HsERK8: 7209.85 RLU and 6169.43 RLU and 7796.61 RLU
0.15625 mM compound, sheet ADP_ATP_glo081724 (3)
  raw luminescence, HsERK8: 6885.18 RLU and 7183.74 RLU and 7394.1 RLU
0.15625 mM compound, sheet Kinase_glo 08142024 (2)
  raw luminescence, HsERK8: 27241.9 RLU and 27273.6 RLU and 25587 RLU
0.15625 mM compound, sheet Kinase_glo_080924_IFPS (2)
  raw luminescence, HsERK8: 10574.2 RLU and 11234.5 RLU and 10315.9 RLU
0.62500 mM compound, sheet ADP_ATP_glo081724 (3)
  raw luminescence, HsERK8: 8751.23 RLU and 9074.68 RLU and 6998.27 RLU
0.62500 mM compound, sheet Kinase_glo 08142024 (2)
  raw luminescence, HsERK8: 32595.4 RLU and 32278.4 RLU and 37446.9 RLU
0.62500 mM compound, sheet Kinase_glo_080924_IFPS (2)
  raw luminescence, HsERK8: 11504.5 RLU and 12982.8 RLU and 12069.3 RLU
2.50000 mM compound, sheet ADP_ATP_glo081724 (3)
  raw luminescence, HsERK8: 11083.2 RLU and 11176 RLU and 9323.49 RLU
2.50000 mM compound, sheet Kinase_glo 08142024 (2)
  raw luminescence, HsERK8: 34732.1 RLU and 34810.3 RLU and 30135.3 RLU
2.50000 mM compound, sheet Kinase_glo_080924_IFPS (2)
  raw luminescence, HsERK8: 16242.2 RLU and 17136.1 RLU and 14690.3 RLU
10.00000 mM compound, sheet ADP_ATP_glo081724 (3)
  raw luminescence, HsERK8: 12580.6 RLU and 13211.7 RLU and 13399.4 RLU
10.00000 mM compound, sheet Kinase_glo 08142024 (2)
  raw luminescence, HsERK8: 37851.6 RLU and 37726.9 RLU and 37092.9 RLU
10.00000 mM compound, sheet Kinase_glo_080924_IFPS (2), signal = ATP left
  raw luminescence, HsERK8: 19715.5 RLU and 19196.1 RLU and 19703.2 RLU
Inhibitor 0.00976562 mM, sheet Sil_Pred3, read 3
  Luminescence Raw (Kinase-Glo): 88068.9 and 93660.9 and 91592.3
Inhibitor 0.0195312 mM, sheet Sil_Pred3, read 3
  Luminescence Raw (Kinase-Glo): 91367.4 and 97331.9 and 97175
Inhibitor 0.0390625 mM, sheet Sil_Pred3, read 3
  Luminescence Raw (Kinase-Glo): 94347.3 and 94052.1 and 92142.9
Inhibitor 0.078125 mM, sheet Sil_Pred3, read 3
  Luminescence Raw (Kinase-Glo): 98578.2 and 105295 and 104564
Inhibitor 0.15625 mM, sheet Sil_Pred3, read 3
  Luminescence Raw (Kinase-Glo): 97978.5 and 103671 and 102378
Inhibitor 0.3125 mM, sheet Sil_Pred3, read 3
  Luminescence Raw (Kinase-Glo): 103442 and 105117 and 104861
Inhibitor 0.625 mM, sheet Sil_Pred3, read 3
  Luminescence Raw (Kinase-Glo): 118041 and 120665 and 116088
Inhibitor 0.00976562, sheet Sil_Pred1, read 1
  Luminescence Raw (Kinase-Glo): 100407 and 106564 and 102910
Inhibitor 0.00976562, sheet Sil_Pred2, read 2
  Luminescence Raw (Kinase-Glo): 90625.3 and 98037.5 and 95030.3
Inhibitor 0.0195312, sheet Sil_Pred1, read 1
  Luminescence Raw (Kinase-Glo): 105846 and 111118 and 110378
Inhibitor 0.0195312, sheet Sil_Pred2, read 2
  Luminescence Raw (Kinase-Glo): 95809.4 and 101447 and 100168
Inhibitor 0.0390625, sheet Sil_Pred1, read 1
  Luminescence Raw (Kinase-Glo): 108782 and 106859 and 106809
Inhibitor 0.0390625, sheet Sil_Pred2, read 2
  Luminescence Raw (Kinase-Glo): 97258.4 and 97956.1 and 97225.8
Inhibitor 0.078125, sheet Sil_Pred1, read 1
  Luminescence Raw (Kinase-Glo): 114996 and 120390 and 121203
Inhibitor 0.078125, sheet Sil_Pred2, read 2
  Luminescence Raw (Kinase-Glo): 101568 and 107854 and 109541
Inhibitor 0.15625, sheet Sil_Pred1, read 1
  Luminescence Raw (Kinase-Glo): 112780 and 119367 and 115572
Inhibitor 0.15625, sheet Sil_Pred2, read 2
  Luminescence Raw (Kinase-Glo): 101289 and 108375 and 104275
Inhibitor 0.3125, sheet Sil_Pred1, read 1
  Luminescence Raw (Kinase-Glo): 120905 and 121070 and 122162
Inhibitor 0.3125, sheet Sil_Pred2, read 2
  Luminescence Raw (Kinase-Glo): 107913 and 110173 and 110911
Inhibitor 0.625 (mM per sheet Pred3), sheet Kinase-Glo802124_Sil_Pred1, read 1, triplicate wells
  Luminescence Raw (Kinase-Glo): 138550 and 138736 and 130936
Inhibitor 0.625, sheet Sil_Pred2, read 2
  Luminescence Raw (Kinase-Glo): 122997 and 124612 and 121493
